What was measured:
[1] = test system: iFA phenotype of mesenchymal-like cells on 13 kPa hydrogels; assay: iFA resolution screen (reversal of fibrosis) in the iFA model; format: cell-based, human; conditions: phenotype formed over 10 days, then compounds added
Experimental: Signal-to-background (S/B) ratio, standard variation and variation coefficients were calculated as the signal of DMSO treated wells divided by the signal of the hit compound (AA5) treated wells. Z′ values were used to measure assay quality which was calculated by the formula of Z′=1−3(SDTotal+SDBackground)/(MeanTotal−MeanBackground)(Inglese et al., 2006) where SDTotal and MeanTotal are the standard deviation and mean of signal for DMSO treated wells, and SDBackground and MeanBackground are the standard deviation and mean of signal for AA5 treated wells. Data normalization and curve fitting were performed as previously reported (Kariv et al., 1999, J Biomol Screen 4, 27-32.). Z′ values were obtained for the number of cellular aggregates and also calculated a phenotypic cell index as the product of cell number x area/Log(number of iFA aggregates+5). Secondary screening using α-SMA and collagen deposition was employed to further ensure efficacy and resolution of the iFA phenotype of the compounds. For the resolution screen, cells were seeded in a 96-well plate as mentioned above and compounds were added at day 13 to analyze their capacity to resolve the iFA phenotype using the same readouts as above. Dose response experiments were carried out as in the secondary screen but with at least 12 steps of a 1:1 dilution resulting in final compound concentrations from 500 μM to high nanomolar ranges.
The primary assay involved plating together the iPSCs and Table 1 compounds sourced from the library on day 1 on the hydrogel and examining the phenotype on day 7 of the culture as described herein. The secondary screen repeated the assay using compound sourced commercially or from additional library materials. The dose response refers to a 20 point dose course that ranges from picomolar to millimolar concentrations. […] As described herein, the cellular phenotype parameters evaluated included size, fluorescence intensity of the iFA phenotype, the shape factor of the cells/aggregates, and the cells' viability in the presence of viability dyes (Calcein AM).

[2] = test system: iFA phenotype of mesenchymal-like cells on 13 kPa hydrogels; assay: iFA-prevention phenotypic high-content drug screen (iFA model); format: cell-based, human
Experimental: Mesenchymal-like cells were cultured on 13 kPa functionalized polyacrylamide gels that were prepared as follows. 187.5 μl of 40% acrylamide, 60 μl of 2% bis-acrylamide and 8.55 μl of sodium bisulfate in a final volume of 990 μl of water was incubated for 20 min at room temperature to degas the mixture. To this mixture, 0.10% ammonium persulfate and 0.15% TEMED were added, mixed and 100 μl of the solution was added onto a 0.4% 3-(Trimethoxysily) propyl methacrylate pH 3.5 treated coverslip. A 2% dimethyl dichlorosilane in chloroform treated round glass coverslip was then inverted on the acrylamide solution and allowed to polymerize for 15 min between the two surfaces. The top coverslip was gently removed, and the bottom coverslips with the hydrogel were transferred to appropriate multi-well low adherent tissue culture plate containing coupling buffer (0.1 M sodium phosphate dibasic, 0.1 M sodium phosphate monobasic) pH 8. To functionalize the hydrogel, 1 part of 0.1 M p-benzoquinone in dioxane was added to the hydrogels containing 4 parts of coupling buffer and incubated at 37° C. for 30 min. The gel was then successively washed with 20% dioxane in water, water, 0.1 M sodium acetate buffer at pH 4.0 containing 1.0 M sodium chloride, 0.1 M sodium bicarbonate solution at pH 8.5 containing 1.0 M sodium chloride, and finally with coupling buffer at pH 7.5. The hydrogels were then coated with 0.1% gelatin for 2 hrs prior to seeding the cells. Cells were seeded at a density of 3000 cells/cm^2.
A phenotypic high-content drug screen was prepared to identify compounds capable of preventing the iFA phenotype in a 96-well format. An ImageXpress XL high-throughput imager with a 4× Plan objective (N/A 0.20) was used with image based focusing. Briefly, 100 μL media were plated in each well of 96 well plate using a Thermo Multidrop non-contact dispenser. Using a custom V&P pin tool mounted to a Beckman FX liquid handler, 1.5 μL compounds or DMSO were added. Mesenchymal-like cells were added as a suspension using the Multidrop at a density of 3.5×10^3 cells/well. The resulting compound concentration was 10 μM. Cells were imaged after 7 days of incubation at 37° C. and 5% CO2: A final of 0.5 μg/ml of Calcein AM and/or 10 μg/ml propidium iodide (viability dye) with 1 μg/ml Hoechst 33342 were added and imaged using the ImageXpress XL system. Data mining was performed using a custom module consisting of the following steps: The image background was removed using a top-hat filter with 25 μm round shape polisher. Next, cellular aggregates and individual spindle-shaped cells were identified. Aggregates of cells were defined by size with a cut-off of 60 to 200 micron and an intensity of at least 200 gray scales over background. Individual spindle-shaped cells were identified as smaller objects with cut-offs from 15 to 100 micron and a lower intensity of at least 70 gray scales over background.
Additional morphometric measurements were made by counting labeled cell nuclei and measuring total area covered with cells per well. The data resulting from the screen were batch exported through MetaXpress and uploaded into a Collaborative Drug Discovery (CDD) cloud based database (Ekins and Bunin, 2013, Methods in molecular biology 993, 139-154.). Hits were selected on a cut-off of more than 3 standard deviations from mean using data normalized to reference wells in each plate. IC50 values (the half maximal inhibitory concentration) from confirmation experiments were calculated from dose-response signal curves using the Prism software (GraphPad Software).
Signal-to-background (S/B) ratio, standard variation and variation coefficients were calculated as the signal of DMSO treated wells divided by the signal of the hit compound (AA5) treated wells. […]

CNC(C)Cc1cccs1 (stereo not shown) [Methiopropamine]
Reversal of fibrosis [1]: Yes | Dose response ([2]; 20 point dose course, picomolar to millimolar): +++ (+++ = strong effect) | Efficacy in secondary screen ([2]; assay repeated with compound sourced commercially or from additional library materials): +++ (+++ = strong effect) | Efficacy in primary screen ([2]; library compound plated with cells on day 1 on hydrogel, phenotype on day 7, 10 μM): +++ (+++ = strong effect)
